Tests used:
[1] = target: MMP-9 (Homo sapiens, UniProt P14780); assay: biochemical
[2] = target: T1, human recombinant FAAH (Homo sapiens, UniProt O00519); assay: biochemical
T1 construct: purchased Cayman Chemical (Ann Arbor, Mich.)
T1 sequence (O00519 1-579): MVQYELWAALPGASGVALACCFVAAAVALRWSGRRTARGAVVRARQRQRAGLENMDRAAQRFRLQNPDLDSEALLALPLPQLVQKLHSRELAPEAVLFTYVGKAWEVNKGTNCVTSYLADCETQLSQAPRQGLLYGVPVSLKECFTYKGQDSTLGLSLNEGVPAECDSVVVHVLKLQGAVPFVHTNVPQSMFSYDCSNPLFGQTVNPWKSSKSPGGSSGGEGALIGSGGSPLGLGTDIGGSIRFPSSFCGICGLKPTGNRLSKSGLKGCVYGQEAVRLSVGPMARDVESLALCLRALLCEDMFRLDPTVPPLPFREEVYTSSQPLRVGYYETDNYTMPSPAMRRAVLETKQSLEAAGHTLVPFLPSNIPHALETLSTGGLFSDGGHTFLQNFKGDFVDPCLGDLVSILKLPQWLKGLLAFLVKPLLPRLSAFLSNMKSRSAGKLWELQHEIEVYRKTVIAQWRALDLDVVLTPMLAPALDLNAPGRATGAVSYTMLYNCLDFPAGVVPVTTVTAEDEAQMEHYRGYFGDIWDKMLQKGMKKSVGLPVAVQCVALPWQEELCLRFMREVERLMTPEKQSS

[3] = system: rabbit corneas; format: cell-based

MMP-9, sequence (P14780 94-707, species assumed): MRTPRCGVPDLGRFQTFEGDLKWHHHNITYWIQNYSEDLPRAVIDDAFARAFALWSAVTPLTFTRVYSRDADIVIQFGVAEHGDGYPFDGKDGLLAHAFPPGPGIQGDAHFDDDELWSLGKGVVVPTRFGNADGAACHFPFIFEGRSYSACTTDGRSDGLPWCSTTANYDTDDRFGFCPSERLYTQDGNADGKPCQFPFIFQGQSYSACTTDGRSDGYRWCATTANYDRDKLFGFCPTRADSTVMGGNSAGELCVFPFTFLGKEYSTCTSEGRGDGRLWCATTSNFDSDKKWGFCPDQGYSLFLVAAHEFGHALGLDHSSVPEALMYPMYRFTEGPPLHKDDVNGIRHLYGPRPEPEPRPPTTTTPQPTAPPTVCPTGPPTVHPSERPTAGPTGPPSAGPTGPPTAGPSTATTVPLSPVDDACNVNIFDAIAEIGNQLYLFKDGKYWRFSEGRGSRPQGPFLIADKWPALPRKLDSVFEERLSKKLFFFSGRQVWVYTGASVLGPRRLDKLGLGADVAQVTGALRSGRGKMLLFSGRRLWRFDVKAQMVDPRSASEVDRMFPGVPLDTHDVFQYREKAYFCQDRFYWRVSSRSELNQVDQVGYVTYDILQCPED

Row | Structure (SMILES) | IC50 [1] [µM] | IC50 [2] [µM] | basement membrane attached post-treatment [3] [%] | epithelial-stromal separation (detachment) [3] [%]
1 | CCCCCCCCC(CCCCCC)C(=O)N(O)Cc1ccc(O)c(OC)c1 (stereo not drawn) [Compound 5c, 2-hexyl-N-hydroxy-N-(4-hydroxy-3-methoxybenzyl)decanamide] | 99 |  |  | 
2 | CCCCCCCCCCCCOC(=O)N(O)Cc1ccc(O)c(OC)c1 [Compound 4b, Dodecyl-N-hydroxy(4-hydroxy-3-methoxybenzyl)carbamate] |  | 67 |  | 
3 | CCCCCCCN(O)C(=O)Cc1ccc(O)c(OC)c1 [Compound 10a, N-heptyl-N-hydroxy-2-(4-hydroxy-3-methoxyphenyl)acetamide] |  | 192 |  | 
4 | CCCCCCCCOC(=O)N(O)Cc1ccc(O)c(OC)c1 [Compound 4c, Octyl-N-hydroxy(4-hydroxy-3-methoxybenzyl)carbamate] |  | 73 |  | 
5 | CCCCCCCCCCCCCCCCOC(=O)N(O)Cc1ccc(O)c(OC)c1 [Compound 4a, Hexadecyl-N-hydroxy(4-hydroxy-3-methoxybenzyl)carbamate] | 120 |  |  | 
6 | CCCCCCCCN(O)C(=O)Cc1ccc(O)c(OC)c1 [Compound 10b, N-octyl-N-hydroxy-2-(4-hydroxy-3-methoxyphenyl)acetamide] | 68 |  | 85 | 15
7 | CCCCCCCC/C=C\CCCCCCCC(=O)N(O)Cc1ccc(O)c(OC)c1 [Compound 5a, (9Z)—N-Hydroxy-N-[(4-hydroxy-3-methoxyphenyl)methyl]-9-Octadecenamide] |  | 71 | 70 | 30
8 | COc1cc(CN(O)C(=O)Oc2ccccc2)ccc1O [Compound 4g, Phenyl-N-hydroxy(4-hydroxy-3-methoxybenzyl)carbamate] |  | 10 |  | 
